Measured values as given in publication PMC7306898, “Concentration-Dependent Activity of Hydromethylthionine on Clinical Decline and Brain Atrophy in a Randomized Controlled Trial in Behavioral Variant Frontotemporal Dementia” (Journal of Alzheimer's Disease, 2020).

Experiments:
[1] = test system: P-glycoprotein (P-gp) transporter; design: method as in Investigator's Brochure; details: ref Investigator's Brochure; cited from earlier work
bvFTD patients [2] = assay: MMSE, 52-week Phase III trial; type: in vivo, human
Excerpt: (§1) The two doses were provided in identical blister packages as visually identical oral tablets to be taken for up to 52 weeks. The primary outcome was the Addenbrookes Cognitive Examination – Revised (ACE-R). The Functional Activities Questionnaire (FAQ) and reduction in progression of whole brain atrophy were alternative co-primary outcomes. Other outcomes included: Modified Alzheimer’s Disease Cooperative Study – Clinical Global Impression of Change (Modified-CGIC) determined by a third independent rater; Frontotemporal Dementia Rating Scale (FRS); MMSE (from MMSE items incorporated into ACE-R); Addenbrookes Cognitive Examination – III (a revised version of ACE-R which excludes MMSE items subject to copyright restrictions); change in brain volume measured by MRI in frontal and temporal lobes (FTV) and lateral ventricles (LVV); and the effect of hydromethylthionine in patients with known genetic mutations associated with bvFTD. Blood was collected prospectively for the purpose of population PK analyses.
The primary analyses were specified as a mixed model, repeated-measures analysis with an unstructured covariance matrix and no imputation for missing data. […]

bvFTD patients [3] = assay: Safety: treatment emergent adverse events, Safety Population; details: for deaths: none judged related to treatment
Excerpt: Patients were monitored throughout the study for adverse events, including use of clinical laboratory tests (including measurement of methaemoglobin by pulse CO-oximetry), physical and neurological examinations, and 12-lead electrocardiograms (ECG) at all clinic visits (screening, baseline, and weeks 2, 16, 32, 52, and 56). The Unified Parkinson’s Disease Rating Scale Part III (UPDRS) [58] was included as a motor safety outcome measure requested by a regulatory agency, as was the Columbia-Suicide Severity Rating Scale (C-SSRS) [59], which were assessed at all visits. Patients were also systematically monitored for potential serotonin syndrome using a rating scale derived from four published diagnostic criteria [60], because of a theoretical potential for serotonin syndrome [61]. By protocol, amyloid related imaging abnormalities (ARIA), serotonin toxicity, and suicidality were to be reported as serious adverse events for expedited reporting.

bvFTD patients [4] = assay: Lateral ventricular volume (LVV) change by MRI; type: in vivo, human; details: Patients receiving 8 mg/day, vs Cmax,ss ≤[…], 52 weeks
Excerpt: as §1
MRI scans were obtained at screening and weeks 16, 32, and 52. The acquisition protocol was standardized across sites and all data were centrally collected, quality-controlled, and analyzed by the imaging core laboratory (Bioclinica). MRI data included a 3D sagittal T1-weighted sequence (using parameters compatible with the ADNI protocol) which was used for all volumetric analyses. […]

[5] = 8 mg/day (n = 110), Safety Population
[6] = 200 mg/day (n = 108), Safety Population

In the case of `CN(C)c1ccc2c(c1)Sc1cc(N(C)C)ccc1N2` [hydromethylthionine, leuco-methylthioninium bis(hydromethanesulphonate)], the “effect of coadministration on digoxin (P-gp substrate)” value [1] is given as “decreased concentrations”, the “induction of P-glycoprotein (P-gp) transporter” value [1] is given as “w eak in ducer” and the “MMSE: Decline±SEM for LMTM 8 mg/day group” value (bvFTD patients [2]; 8 mg/day (n = 110), modeled change from baseline at 52 weeks) is given as “–3.41±0.53”. The “MMSE: Difference±SEM from LMTM 8 mg/day for 200 mg/day” value (bvFTD patients [2]; 200 mg/day (n = 104) vs 8 mg/day, 52 weeks) was “–0.12±0.80”, the “patients with TEAEs judged by the Investigator to be related to study drug” value (bvFTD patients [3]; 8 mg/day) was 30% and the “patients with a TEAE resulting in a dose reduction, interruption, or withdrawal of study drug” value (bvFTD patients [3]; 8 mg/day) was 15 [14%]. The “patients with at least one severe TEAE” value (bvFTD patients [3]; 8 mg/day) was 13 (12%), the “subjects with myoclonus reported as an AE” value (bvFTD patients [3]; 8 mg/day) was 2 and the “withdrawal rate over 12 months” value (bvFTD patients [3]; 8 mg/day) was 15%. The “Number (%) of Patients Reporting at Least One Adverse Event (TEAE)” value (“Number (%) of Patients Reporting” for short) (bvFTD patients [3]; [5]) was 88 (80%), the “Number (%) of patients with TEAE: Agitation” value (bvFTD patients [3]; [5]) was 9 (8.2%) and the “Number (%) of patients with TEAE: Blood folate decreased” value (bvFTD patients [3]; [5]) was 6 (5.5%). For the same molecule, the “Number (%) of patients with TEAE: Cough” value (bvFTD patients [3]; [5]) was 7 (6.4%), the “Number (%) of patients with TEAE: Diarrhea” value (bvFTD patients [3]; [5]) was 9 (8.2%) and the “Number (%) of patients with TEAE: Dysuria” value (bvFTD patients [3]; [5]) was 0. For the same molecule, the “Number (%) of patients with TEAE: Fall” value (bvFTD patients [3]; [5]) was 10 (9.1%), the “Number (%) of patients with TEAE: Folate deficiency” value (bvFTD patients [3]; [5]) was 2 (1.8%) and the “Number (%) of patients with TEAE: Gastrointestinal disorders” value (bvFTD patients [3]; [5]) was 28 (25.5%). For the same molecule, the “Number (%) of patients with TEAE: Headache” value (bvFTD patients [3]; [5]) was 8 (7.3%), the “Number (%) of patients with TEAE: Infections and infestations” value (bvFTD patients [3]; [5]) was 38 (34.5%) and the “Number (%) of patients with TEAE: Injury, poisoning and procedural complications” value (bvFTD patients [3]; [5]) was 18 (16.4%). The “Number (%) of patients with TEAE: Insomnia” value (bvFTD patients [3]; [5]) was 3 (2.7%), the “Number (%) of patients with TEAE: Investigations” value (bvFTD patients [3]; [5]) was 17 (15.5%) and the “Number (%) of patients with TEAE: Metabolism and nutrition disorders” value (bvFTD patients [3]; [5]) was 12 (10.9%). For the same molecule, the “Number (%) of patients with TEAE: Nasopharyngitis” value (bvFTD patients [3]; [5]) was 8 (7.3%), the “Number (%) of patients with TEAE: Pollakiuria” value (bvFTD patients [3]; [5]) was 3 (2.7%) and the “Number (%) of patients with TEAE: Psychiatric disorders” value (bvFTD patients [3]; [5]) was 29 (26.4%). The “Number (%) of patients with TEAE: Renal and urinary disorders” value (bvFTD patients [3]; [5]) was 25 (22.7%), the “Number (%) of patients with TEAE: Respiratory, thoracic and mediastinal disorders” value (bvFTD patients [3]; [5]) was 12 (10.9%) and the “Number (%) of patients with TEAE: Urinary incontinence” value (bvFTD patients [3]; [5]) was 13 (11.8%). For the same molecule, the “Number (%) of patients with TEAE: Urinary tract infection” value (bvFTD patients [3]; [5]) was 13 (11.8%), the “Number (%) of patients with TEAE: Vomiting” value (bvFTD patients [3]; [5]) was 5 (4.5%) and the “Number (%) of patients with TEAE: White blood cells urine positive” value (bvFTD patients [3]; [5]) was 1 (0.9%). For the same molecule, the “Number (%) of Patients Reporting” value (bvFTD patients [3]; 8 mg/day (n = 110), Safety Population, listed as Hydromethylthionine) was 88 (80.0%), the “frequency of renal and urinary disorders” value (bvFTD patients [3]; 8 mg/day, above-threshold plasma levels) was 26% and the “frequency of renal and urinary disorders” value (bvFTD patients [3]; 8 mg/day, below-threshold plasma levels) was 18%. For the same molecule, the deaths (bvFTD patients [3]; 8 mg/day) was 1, the “patients with TEAEs judged by the Investigator to be related to study drug” value (bvFTD patients [3]; 200 mg/day) was 56% and the “patients with a TEAE resulting in a dose reduction, interruption, or withdrawal of study drug” value (bvFTD patients [3]; 200 mg/day) was 35 [32%]. The “patients with at least one severe TEAE” value (bvFTD patients [3]; 200 mg/day) was 17 (16%), the “subjects with myoclonus reported as an AE” value (bvFTD patients [3]; 200 mg/day) was 1 and the “withdrawal rate over 12 months” value (bvFTD patients [3]; 200 mg/day) was 38%. The “Number (%) of Patients Reporting” value (bvFTD patients [3]; [6]) was 103 (95.4%), the “Number (%) of patients with TEAE: Agitation” value (bvFTD patients [3]; [6]) was 9 (8.3%) and the “Number (%) of patients with TEAE: Blood folate decreased” value (bvFTD patients [3]; [6]) was 9 (8.3%). For the same molecule, the “Number (%) of patients with TEAE: Cough” value (bvFTD patients [3]; [6]) was 2 (1.9%), the “Number (%) of patients with TEAE: Diarrhea” value (bvFTD patients [3]; [6]) was 24 (22.2%) and the “Number (%) of patients with TEAE: Dysuria” value (bvFTD patients [3]; [6]) was 6 (5.6%). For the same molecule, the “Number (%) of patients with TEAE: Fall” value (bvFTD patients [3]; [6]) was 13 (12.0%), the “Number (%) of patients with TEAE: Folate deficiency” value (bvFTD patients [3]; [6]) was 6 (5.6%) and the “Number (%) of patients with TEAE: Gastrointestinal disorders” value (bvFTD patients [3]; [6]) was 42 (38.9%). The “Number (%) of patients with TEAE: Headache” value (bvFTD patients [3]; [6]) was 5 (4.6%), the “Number (%) of patients with TEAE: Infections and infestations” value (bvFTD patients [3]; [6]) was 34 (31.5%) and the “Number (%) of patients with TEAE: Injury, poisoning and procedural complications” value (bvFTD patients [3]; [6]) was 16 (14.8%). The “Number (%) of patients with TEAE: Insomnia” value (bvFTD patients [3]; [6]) was 7 (6.5%), the “Number (%) of patients with TEAE: Investigations” value (bvFTD patients [3]; [6]) was 34 (31.5%) and the “Number (%) of patients with TEAE: Metabolism and nutrition disorders” value (bvFTD patients [3]; [6]) was 14 (13.0%). The “Number (%) of patients with TEAE: Nasopharyngitis” value (bvFTD patients [3]; [6]) was 7 (6.5%), the “Number (%) of patients with TEAE: Nervous system disorders” value (bvFTD patients [3]; [6]) was 27 (25.0%) and the “Number (%) of patients with TEAE: Pollakiuria” value (bvFTD patients [3]; [6]) was 10 (9.3%). The “Number (%) of patients with TEAE: Psychiatric disorders” value (bvFTD patients [3]; [6]) was 31 (28.7%), the “Number (%) of patients with TEAE: Renal and urinary disorders” value (bvFTD patients [3]; [6]) was 28 (25.9%) and the “Number (%) of patients with TEAE: Respiratory, thoracic and mediastinal disorders” value (bvFTD patients [3]; [6]) was 8 (7.4%). For the same molecule, the “Number (%) of patients with TEAE: Urinary incontinence” value (bvFTD patients [3]; [6]) was 9 (8.3%), the “Number (%) of patients with TEAE: Urinary tract infection” value (bvFTD patients [3]; [6]) was 14 (13.0%) and the “Number (%) of patients with TEAE: Vomiting” value (bvFTD patients [3]; [6]) was 9 (8.3%). The “Number (%) of patients with TEAE: White blood cells urine positive” value (bvFTD patients [3]; [6]) was 6 (5.6%), the deaths (bvFTD patients [3]; 200 mg/day) was 3 and the “serotonin syndrome reported as an AE” value (bvFTD patients [3]; both doses, 20-item structured examination) was “No subject had serotonin syndrome reported as an AE”. For the same molecule, the “LVV: Difference±SEM for Cmax,ss > […]” value (bvFTD patients [4]) was “–4.12±1.06 cm^3”.
